This note sets out measurements from patent US11339167B2, “Substituted piperidines as kinase inhibitors” (Daewoong Pharmaceutical Co., Ltd., priority 2017, dated 2022).

Test [1] addresses human BTK (Homo sapiens (Human), UniProt Q06187). Briefly: BTK kinase inhibitory activity, ADP Glo kinase assay. (In general: ADP-Glo turns the ADP formed in a reaction into a luminescent signal.)
Test [2] concerns the target human JAK3 (Homo sapiens (Human), UniProt P52333). Briefly: JAK3 kinase inhibitory activity, ADP Glo kinase assay. As to conditions: recombinant purified human JAK3, ATP 5 uM, Poly(Glu4,Tyr1) peptide, 1 hour 30° C. It is filed as biochemical. The method, then: JAK3 and BTK kinases inhibitory activities were measured for the compounds prepared in the Examples through in vitro analysis on the ADP Glow (Glo) platform.
Specifically, the inhibitory activities against JAK3 and BTK kinase were measured using a JAK3 kinase assay kit (Promega, V9441) and a BTK kinase assay kit (Promega, V9071) which were purchased from Promega. […] After incubation (30° C.) for 1 hour, equivalent volume (25 uL per reaction) of ADP Glo was added and incubated (30° C.) for 40 minutes at room temperature. Then, a kinase detection reagent (50 uL per reaction) was added and incubated (30° C.) for 30 minutes at room temperature. The kinase activity was measured by chemiluminescence according to the instructions of ADP Glow kinase assay kit, and the inhibitory activity of the compounds according to the present disclosure was calculated.

Where [3] appears, read: read-out: BTK IC50, recombinant purified human BTK, ATP 10 uM, Poly(Glu4,Tyr1) peptide, 1 hour 30° C.

Each structure is given as a SMILES string. Read-outs that look alike come from different tables or passages of the source.

Sequence of human BTK (Q06187 whole entry): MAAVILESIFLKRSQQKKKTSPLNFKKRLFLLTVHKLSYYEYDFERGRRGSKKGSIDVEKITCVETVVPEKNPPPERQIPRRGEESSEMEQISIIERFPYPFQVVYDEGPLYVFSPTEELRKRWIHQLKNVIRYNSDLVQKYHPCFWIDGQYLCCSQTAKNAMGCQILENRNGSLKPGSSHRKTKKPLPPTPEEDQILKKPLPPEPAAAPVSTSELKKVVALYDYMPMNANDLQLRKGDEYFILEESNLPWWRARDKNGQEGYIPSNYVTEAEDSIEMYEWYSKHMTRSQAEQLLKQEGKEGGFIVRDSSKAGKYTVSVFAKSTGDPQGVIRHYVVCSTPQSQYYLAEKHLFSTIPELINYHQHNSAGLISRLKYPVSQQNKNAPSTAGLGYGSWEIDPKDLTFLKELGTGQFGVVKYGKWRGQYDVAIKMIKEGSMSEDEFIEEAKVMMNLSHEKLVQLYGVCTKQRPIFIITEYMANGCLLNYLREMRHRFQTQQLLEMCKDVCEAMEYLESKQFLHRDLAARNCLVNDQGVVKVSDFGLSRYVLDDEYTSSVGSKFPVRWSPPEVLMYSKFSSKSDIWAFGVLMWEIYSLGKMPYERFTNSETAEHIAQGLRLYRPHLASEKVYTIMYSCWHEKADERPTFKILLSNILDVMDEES
Sequence of human JAK3 (P52333 whole entry): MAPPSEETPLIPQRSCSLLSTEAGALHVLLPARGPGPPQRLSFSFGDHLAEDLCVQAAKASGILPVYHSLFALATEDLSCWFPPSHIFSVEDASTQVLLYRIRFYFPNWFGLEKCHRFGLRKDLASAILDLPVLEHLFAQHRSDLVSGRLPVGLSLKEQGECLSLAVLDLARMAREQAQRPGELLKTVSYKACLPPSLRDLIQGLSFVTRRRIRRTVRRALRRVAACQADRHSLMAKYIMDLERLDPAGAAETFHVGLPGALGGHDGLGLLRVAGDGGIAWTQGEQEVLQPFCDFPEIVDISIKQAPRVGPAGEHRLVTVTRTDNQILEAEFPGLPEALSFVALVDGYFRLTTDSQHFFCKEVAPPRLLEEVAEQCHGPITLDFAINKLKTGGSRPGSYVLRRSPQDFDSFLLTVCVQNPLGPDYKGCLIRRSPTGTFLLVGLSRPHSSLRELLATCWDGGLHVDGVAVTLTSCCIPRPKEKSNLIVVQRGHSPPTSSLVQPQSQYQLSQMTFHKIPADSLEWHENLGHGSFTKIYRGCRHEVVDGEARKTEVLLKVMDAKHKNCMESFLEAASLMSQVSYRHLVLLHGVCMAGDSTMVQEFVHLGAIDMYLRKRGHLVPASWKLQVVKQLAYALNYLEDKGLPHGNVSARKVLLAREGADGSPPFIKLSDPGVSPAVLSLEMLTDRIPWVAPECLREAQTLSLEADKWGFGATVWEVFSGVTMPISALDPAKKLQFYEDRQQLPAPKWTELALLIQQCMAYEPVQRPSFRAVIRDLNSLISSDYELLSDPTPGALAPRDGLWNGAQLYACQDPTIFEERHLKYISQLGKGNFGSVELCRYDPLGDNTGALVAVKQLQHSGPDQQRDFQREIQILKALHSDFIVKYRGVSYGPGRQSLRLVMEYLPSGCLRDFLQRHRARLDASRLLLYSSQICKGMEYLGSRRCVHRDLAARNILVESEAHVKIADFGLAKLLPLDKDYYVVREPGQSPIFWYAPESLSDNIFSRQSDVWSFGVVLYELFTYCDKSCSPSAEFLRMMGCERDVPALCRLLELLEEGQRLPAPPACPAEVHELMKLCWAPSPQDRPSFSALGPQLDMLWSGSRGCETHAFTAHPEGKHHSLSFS

As for `C=CC(=O)N1CC[C@H](F)[C@H](Oc2nc(Nc3ccc(N4CCOCC4)cc3)nc3[nH]ccc23)C1` [Example 31, 1-((3R,4S)-4-fluoro-3-((2-((4-morpholinophenyl)amino)-7H-pyrrolo[2,3-d]pyrimidin-4-yl)oxy)piperidin-1-yl)prop-2-en-1-one], the “BTK IC50” value in test [1] (recombinant purified human BTK, ATP 10 uM, Poly(Glu4,Tyr1) peptide, 1 hour 30° C.) is recorded as “No activity”. Besides, the IC50 (usually the midpoint of a concentration-inhibition curve) in test [2] was found to be 206 nM.
On to `C=CC(=O)N1CC[C@H](F)[C@H](Oc2nc(Nc3cnn(C4CC4)c3)nc3[nH]ccc23)C1` [Example 35, 1-((3R,4S)-3-((2-((1-cyclopropyl-1H-pyrazol-4-yl)amino)-7H-pyrrolo[2,3-d]pyrimidin-4-yl)oxy)-4-fluoropiperidin-1-yl)prop-2-en-1-one], for which the IC50 in test [2] came out at 51.9 nM.
On to `C=CC(=O)N1CC[C@@H](F)[C@H](Oc2nc(Nc3cnoc3)nc3[nH]ccc23)C1` (racemic) [Example 23, 1-(trans-4-fluoro-3-((2-(isoxazol-4-ylamino)-7H-pyrrolo[2,3-d]pyrimidin-4-yl)oxy)piperidin-1-yl)prop-2-en-1-one], for which the results for the IC50 in test [1] and in test [2] were 11.6 nM and 0.7 nM, respectively.
With `C=CC(=O)N1CC[C@H](F)[C@H](Oc2nc(Nc3cnoc3)nc3[nH]ccc23)C1` [Example 29], the figures for the 50% inhibitory concentration (IC50) in test [1] (setting [3]) and in test [2] were over 400 nM and 152 nM, respectively.
For `C=CC(=O)N1CC[C@@H](F)[C@@H](Oc2nc(Nc3cnn(CC)c3)nc3[nH]cc(F)c23)C1` [Example 27, 1-((3S,4R)-3-((2-((1-ethyl-1H-pyrazol-4-yl)amino)-5-fluoro-7H-pyrrolo[2,3-d]pyrimidin-4-yl)oxy)-4-fluoropiperidin-1-yl)prop-2-en-1-one], the half-maximal inhibitory concentration (IC50) in test [1] (setting [3]) came to 2.5 nM; in test [2], 2 nM.
On to `C=CC(=O)N1CC[C@@H](F)[C@@H](Oc2nc(Nc3cnn(C4CCNCC4)c3)nc3[nH]ccc23)C1` [Example 36, 1-((3S,4R)-4-fluoro-3-((2-((1-(piperidin-4-yl)-1H-pyrazol-4-yl)amino)-7H-pyrrolo[2,3-d]pyrimidin-4-yl)oxy)piperidin-1-yl)prop-2-en-1-one], for which the half-maximal inhibitory concentration (IC50) in test [2] amounted to 0.8 nM.
As for `C=CC(=O)N1CC[C@H](F)[C@H](Oc2nc(Nc3cc(C)ns3)nc3[nH]ccc23)C1` [Example 32, 1-((3R,4S)-4-fluoro-3-((2-((3-methylisothiazol-5-yl)amino)-7H-pyrrolo[2,3-d]pyrimidin-4-yl)oxy)piperidin-1-yl)prop-2-en-1-one], the IC50 in test [1] (setting [3]) is over 400 nM; in test [2] it was 83.6 nM.
Taken in the same sequence, the figures for `C=CC(=O)N1CC[C@@H](F)[C@@H](Oc2nc(Nc3cnn(C4CC4)c3)nc3[nH]cc(C)c23)C1` [Example 22, 1-((3S,4R)-3-(2-((1-cyclopropyl-1H-pyrazol-4-yl)amino)-5-methyl-7H-pyrrolo[2,3-d]pyrimidin-4-yloxy)-4-fluoropiperidin-1-yl)prop-2-en-1-one] were 3.6 nM and 0.4 nM.
Regarding `C=CC(=O)N1CC[C@H](F)[C@H](Oc2nc(Nc3cnn(CC(F)F)c3)nc3[nH]cc(C)c23)C1` (racemic) [Example 18, 1-(cis-3-((2-((1-(2,2-difluoroethyl)-1H-pyrazol-4-yl)amino)-5-methyl-7H-pyrrolo[2,3-d]pyrimidin-4-yl)oxy)-4-fluoropiperidin-1-yl)prop-2-en-1-one], the 50% inhibitory concentration (IC50) in test [1] came to 7 nM; in test [2], 0.7 nM.
`C=CC(=O)N1CC[C@H](F)[C@H](Oc2nc(Nc3cnn(C4CCOCC4)c3)nc3[nH]ccc23)C1` [Example 33, 1-((3R,4S)-4-fluoro-3-((2-((1-(tetrahydro-2H-pyran-4-yl)-1H-pyrazol-4-yl)amino)-7H-pyrrolo[2,3-d]pyrimidin-4-yl)oxy)piperidin-1-yl)prop-2-en-1-one]: the values for the 50% inhibitory concentration (IC50) in test [1] (setting [3]) and in test [2] were over 80 nM and 9 nM, respectively.
Taken in the same sequence, the figures for `C=CC(=O)N1CC[C@@H](F)[C@@H](Oc2nc(Nc3cnn(CCO)c3)nc3[nH]ccc23)C1` [Example 30, 1-((3S,4R)-4-fluoro-3-((2-((1-(2-hydroxyethyl)-1H-pyrazol-4-yl)amino)-7H-pyrrolo[2,3-d]pyrimidin-4-yl)oxy)piperidin-1-yl)prop-2-en-1-one] were 2.4 nM and 0.3 nM.
On to `C=CC(=O)N1CC[C@@H](F)[C@@H](Oc2nc(Nc3cnn(CC)c3)nc3[nH]cc(C)c23)C1` [Example 19, 1-((3S,4R)-3-((2-((1-ethyl-1H-pyrazol-4-yl)amino)-5-methyl-7H-pyrrolo[2,3-d]pyrimidin-4-yl)oxy)-4-fluoropiperidin-1-yl)prop-2-en-1-one], for which the figures for the IC50 in test [1] (setting [3]) and in test [2] were 3.4 nM and 0.4 nM, respectively.
Taken in the same sequence, the figures for `C=CC(=O)N1CC[C@@H](F)[C@@H](Oc2nc(Nc3cnn(CC(F)F)c3)nc3[nH]cc(C)c23)C1` [Example 20, 1-((3S,4R)-3-((2-((1-(2,2-difluoroethyl)-1H-pyrazol-4-yl)amino)-5-methyl-7H-pyrrolo[2,3-d]pyrimidin-4-yl)oxy)-4-fluoropiperidin-1-yl)prop-2-en-1-one] were 4.5 nM and 0.4 nM.
On to `C=CC(=O)N1CC[C@@H](F)[C@H](Oc2nc(Nc3cnn(CC(F)F)c3)nc3[nH]ccc23)C1` (racemic) [Example 2, 1-(trans-3-((2-((1-(2,2-difluoroethyl)-1H-pyrazol-4-yl)amino)-7H-pyrrolo[2,3-d]pyrimidin-4-yl)oxy)-4-fluoropiperidin-1-yl)prop-2-en-1-one], for which the results for the 50% inhibitory concentration (IC50) in test [1] and in test [2] were 2.5 nM and 0.3 nM, respectively.
On to `C=CC(=O)N1CC[C@@H](F)[C@@H](Oc2nc(Nc3cnn(CC(F)F)c3)nc3[nH]ccc23)C1` [Example 6, 1-((3S,4R)-3-((2-((1-(2,2-difluoroethyl)-1H-pyrazol-4-yl)amino)-7H-pyrrolo[2,3-d]pyrimidin-4-yl)oxy)-4-fluoropiperidin-1-yl)prop-2-en-1-one], for which the concentration for half-maximal inhibition (IC50) amounted to 1.5 nM in test [1] (setting [3]) and 0.2 nM in test [2].
Taken in the same sequence, the figures for `C=CC(=O)N1CC[C@@H](F)[C@@H](Oc2nc(Nc3cnn(CC)c3)nc3[nH]cc(Cl)c23)C1` [Example 26, 1-((3S,4R)-3-((5-chloro-2-((1-ethyl-1H-pyrazol-4-yl)amino)-7H-pyrrolo[2,3-d]pyrimidin-4-yl)oxy)-4-fluoropiperidin-1-yl)prop-2-en-1-one] were 2 nM and 0.2 nM.
Taken in the same sequence, the figures for `C=CC(=O)N1CC[C@@H](F)[C@H](Oc2nc(Nc3cnn(CC)c3)nc3[nH]ccc23)C1` [Example 24, 1-((3R,4R)-3-((2-((1-ethyl-1H-pyrazol-4-yl)amino)-7H-pyrrolo[2,3-d]pyrimidin-4-yl)oxy)-4-fluoropiperidin-1-yl)prop-2-en-1-one] were about 400 nM and 5.9 nM.
Taken in the same sequence, the figures for `C=CC(=O)N1CC[C@H](F)[C@H](Oc2nc(Nc3cnn(CC)c3)nc3[nH]ccc23)C1` [Example 28, 1-((3R,4S)-3-((2-((1-ethyl-1H-pyrazol-4-yl)amino)-7H-pyrrolo[2,3-d]pyrimidin-4-yl)oxy)-4-fluoropiperidin-1-yl)prop-2-en-1-one] were over 400 nM and 15.5 nM.
`C=CC(=O)N1CC[C@@H](F)[C@H](Oc2nc(Nc3cnn(C4CC4)c3)nc3[nH]cc(Cl)c23)C1` (racemic) [Example 10, 1-(trans-3-((5-chloro-2-((1-cyclopropyl-1H-pyrazol-4-yl)amino)-7H-pyrrolo[2,3-d]pyrimidin-4-yl)oxy)-4-fluoropiperidin-1-yl)prop-2-en-1-one]: the IC50 in test [1] was found to be 2.8 nM; in test [2] it was 0.4 nM.
Taken in the same sequence, the figures for `C=CC(=O)N1CC[C@@H](F)[C@H](Oc2nc(Nc3cnn(C4CC4)c3)nc3[nH]cc(C#N)c23)C1` (racemic) [Example 13, 4-((trans-1-acryloyl-4-fluoropiperidin-3-yl)oxy)-2-((1-cyclopropyl-1H-pyrazol-4-yl)amino)-7H-pyrrolo[2,3-d]pyrimidine-5-carbonitrile] were 1.1 nM and 0.3 nM.
Consider `C=CC(=O)N1CC[C@@H](F)[C@@H](Oc2nc(Nc3cnn(C4CC4)c3)nc3[nH]ccc23)C1` [Example 8, 1-((3S,4R)-3-((2-((1-cyclopropyl-1H-pyrazol-4-yl)amino)-7H-pyrrolo[2,3-d]pyrimidin-4-yl)oxy)-4-fluoropiperidin-1-yl)prop-2-en-1-one], for which the IC50 in test [1] (setting [3]) is 1.4 nM; in test [2] it was 0.2 nM.
Taken in the same sequence, the figures for `C=CC(=O)N1CC[C@@H](F)[C@@H](Oc2nc(Nc3cc(C)ns3)nc3[nH]cc(C)c23)C1` [Example 21, 1-((3S,4R)-4-fluoro-3-((5-methyl-2-((3-methylisothiazol-5-yl)amino)-7H-pyrrolo[2,3-d]pyrimidin-4-yl)oxy)piperidin-1-yl)prop-2-en-1-one] were 1.5 nM and 0.2 nM.
Taken in the same sequence, the figures for `C=CC(=O)N1CC[C@@H](F)[C@@H](Oc2nc(Nc3cc(C)ns3)nc3[nH]ccc23)C1` [Example 7, 1-((3S,4R)-4-fluoro-3-((2-((3-methylisothiazol-5-yl)amino)-7H-pyrrolo[2,3-d]pyrimidin-4-yl)oxy)piperidin-1-yl)prop-2-en-1-one] were 1.3 nM and 0.2 nM.
Regarding `C=CC(=O)N1CC[C@H](F)[C@H](Oc2nc(Nc3cnn(CC(F)F)c3)nc3[nH]cc(F)c23)C1` (racemic) [Example 16, 1-(cis-3-((2-((1-(2,2-difluoroethyl)-1H-pyrazol-4-yl)amino)-5-fluoro-7H-pyrrolo[2,3-d]pyrimidin-4-yl)oxy)-4-fluoropiperidin-1-yl)prop-2-en-1-one], the IC50 in test [1] was 5.9 nM; in test [2] it was 0.6 nM.
